{"source": "patent US8444988B2", "about": "“Cancer treatment method” (GlaxoSmithKline LLC, priority 2001, dated 2013)", "type_in_all_cases": "in vivo", "key": {"[1]": {"test_system": "HN5 (human head and neck tumor line)", "assay": "HN5 subcutaneous human xenograft mouse model, anti-tumor activity", "settings": "monotherapy, at highest dose; HN5 s.c. xenograft; FIG. 1", "method": "HN5 cells were cultured in RPMI 1640+10% Fetal bovine serum, Sodium pyruvate and L-Glutamine at 37° in a 95/5% air/CO2 atmosphere. Cells were harvested following trypsin digestion and brought to a density of 2×10^6 cells/200 μl in PBS. Tumors were initiated by injection of the cell suspension subcutaneously in the axillary region.\nFor the xenograft models used here solid tumors were measured by electronic caliper measurement through the skin, measurements were typically made twice weekly. In the examples presented, tumors were monitored beyond the duration of therapy\nDrugs were administered by P.O. or IV. routes. The title compound or salt thereof of Example 1 was formulated in aqueous 0.5% hydroxypropyl methylcellulose, 0.1% Tween 80 and administered as a suspension twice daily for 21 days as indicated in the respective figures. TAXOL® (paclitaxel) (Bristol Myers Squibb Co.) was purchased preformulated in Cremophor-EL saline and diluted into saline to a final Cremophor-EL concentration of 5 or 10% Cremophor-EL for 10 or 20 mg/kg TAXOL® (paclitaxel) therapy respectively. TAXOL® (paclitaxel) was administered IV., once a day, for 5 days (days 1-5 of Example 1 therapy) as indicated in the respective figures. […]"}, "[2]": {"test_system": "NCI H322 (human lung tumor line)", "assay": "NCI H322 subcutaneous human xenograft mouse model, anti-tumor activity", "settings": "monotherapy; NCI H322 s.c. xenograft; FIG. 3", "method": "Cells were harvested following trypsin digestion and brought to a density of 2×10^6 cells/200 μl in PBS. Tumors were initiated by injection of the cell suspension subcutaneously in the axillary region. In addition some experiments were performed following serial transplantation of tumor fragments in SCID mice. Tumors were initiated by injection of tumor fragments subcutaneously in the axillary region."}, "[3]": {"test_system": "BT474 (human breast tumor line)", "assay": "BT474 subcutaneous human xenograft mouse model, anti-tumor activity", "settings": "monotherapy (Example 1 at the highest dose tested); BT474 s.c. xenograft; FIG. 2", "description": "The BT474 xenograft was maintained by serial transplantation in SCID mice. Tumors are initiated by injection of tumor fragments subcutaneously in the axillary region.\nDrugs were administered by P.O. or IV. routes. The title compound or salt thereof of Example 1 was formulated in aqueous 0.5% hydroxypropyl methylcellulose, 0.1% Tween 80 and administered as a suspension twice daily for 21 days as indicated in the respective figures. TAXOL® (paclitaxel) (Bristol Myers Squibb Co.) was purchased preformulated in Cremophor-EL saline and diluted into saline to a final Cremophor-EL concentration of 5 or 10% Cremophor-EL for 10 or 20 mg/kg TAXOL® (paclitaxel) therapy respectively. TAXOL® (paclitaxel) was administered IV., once a day, for 5 days (days 1-5 of Example 1 therapy) as indicated in the respective figures. Carboplatin (Sigma) was formulated in saline and was administered I.V., once a day, for two 5 day periods as indicated in the respective figure (days 1-5 and 15-19 of Example 1 therapy)."}}, "data": [{"compound": "N.N.O=C([O-])C1(C(=O)[O-])CCC1.[Pt+2]", "note": "[Carboplatin, platinum, diammine [1,1-cyclobutane-dicarboxylate(2-)-O,O′]]", "values": [{"measurement": "tumor growth inhibition", "setting": "[1]", "value": "about 45%"}]}, {"compound": "CS(=O)(=O)CCNCc1ccc(-c2ccc3ncnc(Nc4ccc(OCc5cccc(F)c5)c(Cl)c4)c3c2)o1", "note": "[Example 1, N-{3-Chloro-4-[(3-fluorobenzyl)oxy]phenyl}-6-[5-({[2-(methylsulfonyl)ethyl]amino}methyl)-2-furyl]-4-quinazolinamine]", "values": [{"measurement": "tumor growth inhibition", "setting": "[1]", "value": "about 80%"}, {"measurement": "tumor growth inhibition", "setting": "[2]", "value": "100-130%"}, {"measurement": "tumor growth inhibition", "setting": "[3]", "value": "about 90%"}]}, {"compound": "CC(=O)O[C@H]1C(=O)[C@@]2(C)[C@H]([C@H](OC(=O)c3ccccc3)[C@]3(O)C[C@H](OC(=O)[C@H](O)[C@@H](NC(=O)c4ccccc4)c4ccccc4)C(C)=C1C3(C)C)[C@]1(OC(C)=O)CO[C@@H]1C[C@@H]2O", "note": "[TAXOL® (paclitaxel), 5β,20-epoxy-1,2α,4,7β,10β,13α-hexa-hydroxytax-11-en-9-one 4,10-diacetate 2-benzoate 13-ester with (2R,3S)-N-benzoyl-3-phenylisoserine]", "values": [{"measurement": "tumor growth inhibition", "setting": "[2]", "value": "about 45%"}, {"measurement": "tumor growth inhibition", "setting": "[3]", "value": "about 45%"}]}]}
